Results on 20 compounds are retold here after patent EP1806348A2, “Pyrido (2,3-D)Pyrimidines as inhibitors of cellular proliferation” (Warner-Lambert Company LLC, priority 1997, dated 1998).

Common to all, as to type: biochemical
For one assay, the target named is cdk4/D (Homo sapiens, UniProt P11802). The experiment in a line: Cyclin-dependent kinase 4 (cdk4) enzyme assay, 32P incorporation into retinoblastoma. As to conditions: Table 1; 25 µM ATP, retinoblastoma substrate. How it is done: A typical assay, for instance, measures inhibitory activity against the cyclin D dependent kinase 4 enzyme (cdk4/D). […] The cdk 4 assay was carried out as follows.
All components except the ATP were added to the wells, and the plate was placed on a plate mixer for 2 minutes. […] The reaction was terminated by addition of 0.1 mL of 20% trichloroacetic acid (TCA). The plate was kept at 4°C for at least 1 hour to allow the substrate to precipitate. The wells were then washed five times with 0.2 mL of 10% TCA and ^32P incorporation was determined with a beta plate counter (Wallac Inc., Gaithersburg, MD).

For the next assay, the target named is cdk2/cyclinE (Homo sapiens, UniProt P24941). The assay can be described thus: Cyclin-dependent kinase assay (cdk2/cyclinE). To be noted: Table 1; read-out: cdk2/E IC50. How it is done: (§1) All components except the ATP were added to the wells, and the plate was placed on a plate mixer for 2 minutes. […] The reaction was terminated by addition of 0.1 mL of 20% TCA. The plate was kept at 4°C for at least 1 hour to allow the substrate to precipitate. The wells were then washed five times with 0.2 mL of 10% TCA and ^32P incorporation determined with a beta plate counter (Wallac Inc., Gaithersburg, MD).

For the next assay, the target named is cdk2/cyclinA (Homo sapiens, UniProt P24941). The experiment in a line: Cyclin-dependent kinase assay (cdk2/cyclinA). As to conditions: Table 1. How it is done:
as §1

For the next assay, the target named is cdc2/cyclinB (Homo sapiens, UniProt P06493). The assay can be described thus: Cyclin-dependent kinase assay (cdc2/cyclinB). As to conditions: Table 1; read-out: cdk1/B IC50. How it is done: as §1
In assay [1] the target is T1, mouse PDGF-β receptor tyrosine kinase (Mus musculus, UniProt P05622).
T1 construct: amplify a fragment of DNA that codes for the intracellular tyrosine kinase domain; made in house; host or cells: SF9 insect cells (baculovirus)
The experiment in a line: PDGF receptor tyrosine kinase assay. As to conditions: Table 3. From the text:
(§2) Full-length cDNAs for the mouse PDGF-β and human FGF-1 (flg) receptor tyrosine kinases were obtained from J. Escobedo and prepared as described in J. Biol. Chem., 1991;262:1482-1487. PCR primers were designed to amplify a fragment of DNA that codes for the intracellular tyrosine kinase domain. The fragment was inserted into a baculovirus vector, cotransfected with AcMNPV DNA, and the recombinant virus isolated. SF9 insect cells were infected with the virus to overexpress the protein, and the cell lysate was used for the assay. Assays were performed in 96-well plates (100 µL/incubation/well), and conditions were optimized to measure the incorporation of ^32P from γ^32P-ATP into a glutamate-tyrosine co-polymer substrate. Briefly, to each well was added 82.5 µL of incubation buffer containing 25 mM Hepes (pH 7.0), 150 mM NaCl, 0.1% Triton X-100, 0.2 mM PMSF, 0.2 mM Na3VO4, 10 mM MnCl2, and 750 µg/mL of Poly (4:1) glutamate-tyrosine followed by […] of inhibitor and 5 µL of enzyme lysate (7.5 µg/µL FGF-TK or 6.0 µg/µL PDGF-TK) to initiate the reaction. Following a 10 minute incubation at 25°C, […] of γ^32P-ATP (0.4 µCi plus 50 µM ATP) was added to each well, and samples were incubated for an additional 10 minutes at 25°C. The reaction was terminated by the addition of 100 µL of 30% trichloroacetic acid (TCA) containing 20 mM sodium pyrophosphate and precipitation of material onto glass fiber mats (Wallac). Filters were washed three times with 15% TCA containing 100 mM sodium pyrophosphate, and the radioactivity retained on the filters counted in a Wallac 1250 Betaplate reader. Nonspecific activity was defined as radioactivity retained on the filters following incubation of samples with buffer alone (no enzyme). Specific enzymatic activity (enzyme plus buffer) was defined as total activity minus nonspecific activity. […]

Assay [2] addresses T2, human FGF-1 (flg) receptor tyrosine kinase (Homo sapiens, UniProt P11362).
T2 construct: amplify a fragment of DNA that codes for the intracellular tyrosine kinase domain; made in house; host or cells: SF9 insect cells (baculovirus)
The experiment in a line: FGF receptor tyrosine kinase assay. To be noted: Table 3.
Source text: as §2

In a further assay the target is c-Src (Homo sapiens, UniProt P12931). The assay can be described thus: c-Src protein kinase assay. To be noted: Table 5. How it is done: C-Src kinase was purified from baculovirus infected insect cell lysates using an antipeptide monoclonal antibody directed against the N-terminal amino acids (amino acids 2-17) of c-Src. The antibody, covalently linked to 0.65 µm latex beads, was added to a suspension of insect cell lysis buffer comprised of 150 mM NaCl, 50 mM Tris pH 7.5, 1 mM DTT, 1% NP-40,2 mM EGTA, 1 mM sodium vanadate, 1 mM PMSF, 1 µg/mL each of leupeptin, pepstatin, and aprotinin. Insect cell lysate containing c-Src protein was incubated with these beads for 3 to 4 hours at 4°C with rotation. At the end of the lysate incubation, the beads were rinsed three times in lysis buffer, resuspended in lysis buffer containing 10% glycerol, and frozen. These latex beads were thawed, rinsed three times in assay buffer (40 mM Tris, pH 7.5, […]) and suspended in the same buffer. In a Millipore 96-well plate with a 0.65 µm polyvinylidine membrane bottom were added the reaction components: 10 µL c-Src beads, 10 µL of 2.5 mg/mL poly GluTyr substrate, 5 µM ATP containing 0.2 µCi labeled ^32P-ATP, 5 µL DMSO containing inhibitors or as a solvent control, and buffer to make the final volume 125 µL. The reaction was started at room temperature by addition of the ATP and quenched 10 minutes later by the addition of 125 µL of 30% TCA, 0.1 M sodium pyrophosphate for 5 minutes on ice. […] The filters were then punched, counted in a liquid scintillation counter, and the data examined for inhibitory activity in comparison to a known inhibitor such as erbstatin. […]
c-Src, sequence (P12931 whole entry, the tested form may be a part): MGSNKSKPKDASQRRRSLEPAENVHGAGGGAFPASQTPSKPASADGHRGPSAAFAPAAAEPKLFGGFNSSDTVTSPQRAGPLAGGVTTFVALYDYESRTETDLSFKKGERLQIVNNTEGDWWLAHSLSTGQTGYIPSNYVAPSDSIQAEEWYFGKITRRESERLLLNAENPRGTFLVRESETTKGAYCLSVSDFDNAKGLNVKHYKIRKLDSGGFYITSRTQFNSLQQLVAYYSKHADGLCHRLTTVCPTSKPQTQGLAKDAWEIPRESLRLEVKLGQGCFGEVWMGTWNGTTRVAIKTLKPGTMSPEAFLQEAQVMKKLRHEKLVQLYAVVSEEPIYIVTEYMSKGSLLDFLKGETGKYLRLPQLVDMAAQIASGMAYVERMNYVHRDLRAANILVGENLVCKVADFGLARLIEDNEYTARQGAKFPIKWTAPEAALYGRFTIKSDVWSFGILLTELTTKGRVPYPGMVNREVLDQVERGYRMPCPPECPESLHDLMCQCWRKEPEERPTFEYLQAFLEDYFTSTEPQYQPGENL

cdk4/D, sequence (P11802 whole entry): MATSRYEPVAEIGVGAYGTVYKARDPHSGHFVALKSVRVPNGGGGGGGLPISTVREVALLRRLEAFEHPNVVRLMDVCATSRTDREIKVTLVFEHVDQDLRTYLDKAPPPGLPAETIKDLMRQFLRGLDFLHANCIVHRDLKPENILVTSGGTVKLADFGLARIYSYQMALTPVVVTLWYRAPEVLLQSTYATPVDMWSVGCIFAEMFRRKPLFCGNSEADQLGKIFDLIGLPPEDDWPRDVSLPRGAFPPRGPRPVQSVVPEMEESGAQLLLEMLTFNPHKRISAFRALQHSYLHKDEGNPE
cdk4/D, sequence (P24385 whole entry, further chain): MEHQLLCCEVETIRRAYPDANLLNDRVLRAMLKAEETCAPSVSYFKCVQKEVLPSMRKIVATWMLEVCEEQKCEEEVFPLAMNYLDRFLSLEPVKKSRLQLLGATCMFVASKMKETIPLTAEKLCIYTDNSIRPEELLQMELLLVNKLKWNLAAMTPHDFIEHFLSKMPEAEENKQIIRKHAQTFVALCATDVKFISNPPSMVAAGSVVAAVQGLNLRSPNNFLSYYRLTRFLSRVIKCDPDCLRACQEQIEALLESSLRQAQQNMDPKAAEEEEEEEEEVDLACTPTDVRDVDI
cdc2/cyclinB, sequence (P06493 whole entry): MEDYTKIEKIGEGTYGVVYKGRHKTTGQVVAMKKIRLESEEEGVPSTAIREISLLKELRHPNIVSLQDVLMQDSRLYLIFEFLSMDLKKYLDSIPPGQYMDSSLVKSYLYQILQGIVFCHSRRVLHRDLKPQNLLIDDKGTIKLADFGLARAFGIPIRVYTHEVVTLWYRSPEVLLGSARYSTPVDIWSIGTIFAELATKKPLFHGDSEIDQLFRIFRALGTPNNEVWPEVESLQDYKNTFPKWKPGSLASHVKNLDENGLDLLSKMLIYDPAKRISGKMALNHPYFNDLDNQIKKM
cdc2/cyclinB, sequence (P14635 whole entry, further chain): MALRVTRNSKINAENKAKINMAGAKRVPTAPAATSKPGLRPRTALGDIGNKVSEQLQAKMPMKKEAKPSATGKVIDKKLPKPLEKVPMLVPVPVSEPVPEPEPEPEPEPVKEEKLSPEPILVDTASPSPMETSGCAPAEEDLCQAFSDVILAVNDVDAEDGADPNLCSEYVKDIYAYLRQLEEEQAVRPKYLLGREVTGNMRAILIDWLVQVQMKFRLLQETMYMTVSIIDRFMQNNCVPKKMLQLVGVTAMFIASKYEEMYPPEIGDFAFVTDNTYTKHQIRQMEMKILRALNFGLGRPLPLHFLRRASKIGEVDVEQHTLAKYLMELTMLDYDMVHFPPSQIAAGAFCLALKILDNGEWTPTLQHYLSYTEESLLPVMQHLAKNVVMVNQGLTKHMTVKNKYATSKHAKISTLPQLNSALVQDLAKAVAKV
T2 sequence (P11362 478-767 limits assumed): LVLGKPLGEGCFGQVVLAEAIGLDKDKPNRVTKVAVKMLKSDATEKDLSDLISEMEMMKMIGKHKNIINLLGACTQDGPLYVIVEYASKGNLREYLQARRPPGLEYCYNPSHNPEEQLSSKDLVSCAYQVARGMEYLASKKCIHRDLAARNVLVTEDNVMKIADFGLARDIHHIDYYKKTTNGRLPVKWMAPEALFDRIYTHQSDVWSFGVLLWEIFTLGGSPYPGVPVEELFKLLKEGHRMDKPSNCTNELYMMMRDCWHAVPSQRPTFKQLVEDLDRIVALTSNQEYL
T1 sequence (P05622 599-961 limits assumed): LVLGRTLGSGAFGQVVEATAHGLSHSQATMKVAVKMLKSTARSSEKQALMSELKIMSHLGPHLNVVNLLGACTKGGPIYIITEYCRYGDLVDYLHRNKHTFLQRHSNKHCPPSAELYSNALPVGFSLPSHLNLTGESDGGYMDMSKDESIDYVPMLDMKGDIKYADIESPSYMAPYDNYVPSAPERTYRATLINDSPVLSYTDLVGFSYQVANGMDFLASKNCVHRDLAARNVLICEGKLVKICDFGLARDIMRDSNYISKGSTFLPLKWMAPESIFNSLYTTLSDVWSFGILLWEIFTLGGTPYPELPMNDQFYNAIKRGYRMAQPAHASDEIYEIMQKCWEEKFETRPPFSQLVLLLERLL

In the case of `CCn1c(=O)ccc2cnc(Nc3ccccc3)nc21` [Example 18, 8-Ethyl-2-phenylamino-8H-pyrido[2,3-d]pyrimidin-7-one], the IC50 was 752 nM at cdk4/D; 410 nM on cdk2/cyclinE; 129 nM against cdk2/cyclinA; 1020 nM on cdc2/cyclinB; 1780 nM in assay [1]; 3300 nM in assay [2].

`CCCCn1c(=O)ccc2cnc(Nc3ccccc3)nc21` [Example 40, 8-Butyl-2-phenylamino-8H-pyrido[2,3-d]pyrimidin-7-one]: the IC50 was found to be 1490 nM against cdk4/D; 58 nM on cdk2/cyclinE; 37 nM on cdk2/cyclinA; 205 nM on cdc2/cyclinB; 19500 nM against c-Src.

`CCCn1c(=O)ccc2cnc(Nc3ccccc3)nc21` [Example 41, 2-Phenylamino-8-propyl-8H-pyrido[2,3-d]pyrimidin-7-one]: the IC50 against cdk4/D came out at 550 nM; at cdk2/cyclinE it was 112 nM; against cdk2/cyclinA, 50 nM; at cdc2/cyclinB it was 299 nM; in assay [1] it was 4960 nM; in assay [2], 6600 nM.

Take `CC(C)Cn1c(=O)ccc2cnc(Nc3ccccc3)nc21` [Example 42, 8-Isobutyl-2-phenylamino-8H-pyrido[2,3-d]pyrimidin-7-one]: the IC50 came out at 400 nM against cdk4/D, 3690 nM in assay [1] and 4060 nM in assay [2].

Regarding `CCn1c(=O)ccc2cnc(Nc3ccncc3)nc21` [Example 50, 8-Ethyl-2-(pyridin-4-ylamino)-8H-pyrido[2,3-d]pyrimidin-7-one], the IC50 against cdk4/D came out at 2000 nM; against c-Src, 15000 nM.

Regarding `CCN(CC)CCOc1ccc(Nc2ncc3ccc(=O)n(CC)c3n2)cc1` [Example 52, 2-[4-(2-Diethylaminoethoxy)-phenylamino]-8-ethyl-8H-pyrido[2,3-d]pyrimidin-7-one], the IC50 on cdk4/D stood at 160 nM; on cdk2/cyclinE it was 2340 nM; against cdk2/cyclinA, 750 nM; on cdc2/cyclinB, 2660 nM; against c-Src, 1030 nM.

On to `CCN(CC)c1ccc(Nc2ncc3ccc(=O)n(CC)c3n2)cc1` [Example 78, 2-(4-Diethylamino-phenylamino)-8-ethyl-8H-pyrido[2,3-d]pyrimidin-7-one], for which the IC50 came out at 1300 nM at cdk4/D, 2940 nM on cdk2/cyclinE, 2240 nM on cdk2/cyclinA and 740 nM on cdc2/cyclinB.

For `CCn1c(=O)ccc2cnc(Nc3ccc(F)cc3)nc21` [Example 88, 8-Ethyl-2-(4-fluorophenylamino)-8H-pyrido[2,3-d]pyrimidin-7-one], the IC50 against cdk4/D was found to be 1300 nM; at cdk2/cyclinE it was 280 nM; on cdk2/cyclinA it was 440 nM; on cdc2/cyclinB it was 2070 nM.

As for `CCn1c(=O)ccc2cnc(Nc3ccc(N(C)C)cc3)nc21` [Example 93, 2-(4-Dimethylamino-phenylamino)-8-ethyl-8H-pyrido[2,3-d]pyrimidin-7-one], the IC50 against cdk4/D was 380 nM; on cdk2/cyclinE it was 1770 nM; on cdk2/cyclinA it was 280 nM; on cdc2/cyclinB it was 780 nM.

In the case of `O=c1ccc2cnc(Nc3ccccc3)nc2n1-c1ccccc1` [Example 101, 2-Phenylamino-8-phenyl-8H-pyrido[2,3-d]pyrimidin-7-one], the IC50 at cdk4/D was 1700 nM; against c-Src, 21200 nM.

Consider `O=c1ccc2cnc(Nc3ccccc3)nc2n1C1CCCC1` [Example 108, 8-Cyclopentyl-2-phenylamino-8H-pyrido[2,3-d]pyrimidin-7-one], for which the IC50 against cdk4/D was 210 nM; at cdk2/cyclinE, 110 nM; against cdk2/cyclinA it was 12 nM; on cdc2/cyclinB, 190 nM; in assay [1], 4180 nM; in assay [2], 2980 nM.

Consider `CN1CCN(c2ccc(Nc3ncc4ccc(=O)n(CCCOCc5ccccc5)c4n3)cc2)CC1` [Example 115, 8-(3-Benzyloxy-propyl)-2-[4-(4-methyl-piperazin-1-yl)-phenylamino]-8H-pyrido[2,3-d]pyrimidin-7-one], for which the IC50 at c-Src came to 545 nM.

On to `O=c1ccc2cnc(Nc3ccccc3)nc2n1C1CCCCC1` [Example 131, 8-Cyclohexyl-2-phenylamino-8H-pyrido[2,3-d]pyrimidin-7-one], for which the IC50 came to 47 nM on cdk4/D; 125 nM at cdk2/cyclinE; 79 nM at cdk2/cyclinA; 749 nM on cdc2/cyclinB; 16100 nM in assay [1]; 12400 nM in assay [2].

`CCN(CC)CCOc1ccc(Nc2ncc3ccc(=O)n(C4CCCCC4)c3n2)cc1C` [Example 150, 8-Cyclohexyl-2-[4-(2-diethylamino-ethoxy)-3-methyl-phenylamino]-8H-pyrido[2,3-d]pyrimidin-7-one]: the IC50 in assay [1] and in assay [2] was 99 nM in each case.

Consider `O=c1ccc2cnc(Nc3ccccc3)nc2n1C1CCCCCC1` [Example 155, 8-Cycloheptyl-2-phenylamino-8H-pyrido[2,3-d]pyrimidin-7-one], for which the IC50 is 182 nM against cdk4/D, 24 nM on cdk2/cyclinE, 9 nM on cdk2/cyclinA and 65 nM at cdc2/cyclinB.

Consider `O=c1ccc2cnc(Nc3ccc(-n4cccn4)cc3)nc2n1C1CCCCC1` [Example 162, 8-Cyclohexyl-2-(4-pyrazol-1-yl-phenylamino)-8H-pyrido[2,3-d]pyrimidin-7-one], for which the figures for the IC50 in assay [1] and in assay [2] were 17100 nM and 19700 nM, respectively.

In the case of `CC1CC(C)CN(c2ccc(Nc3ncc4ccc(=O)n(C5CCCCC5)c4n3)cc2)C1` (stereo not shown) [Example 167, 8-Cyclohexyl-2-[4-(3,5-dimethyl-piperidin-1-yl)-phenylamino]-8H-pyrido[2,3-d]pyrimidin-7-one], the IC50 in assay [1] came to 33100 nM; in assay [2] it was 20600 nM.

With `O=c1ccc2cnc(Nc3ccccc3)nc2n1C1CC2CCC1C2` (stereo not shown) [Example 180, 8-Bicyclo[2.2.1]hept-2-yl-2-phenylamino-8H-pyrido[2,3-d]pyrimidin-7-one], the IC50 against cdk4/D was 38 nM; at cdk2/cyclinE, 173 nM; against cdk2/cyclinA it was 75 nM; on cdc2/cyclinB it was 503 nM; in assay [1] it was 27800 nM; in assay [2], 12000 nM.

Take `O=c1ccc2cnc(Nc3ccc(N4CCC(CCO)CC4)cc3)nc2n1C1CCCC1` [Example 196, 8-Cyclopentyl-2-{4-[4-(2-hydroxy-ethyl)-piperidin-1-yl]-phenylamino}-8H-pyrido[2,3-d]pyrimidin-7-one]: the IC50 came to 1060 nM in assay [1] and 1450 nM in assay [2].

On c-Src, `O=c1ccc2cnc(Nc3ccc(N4CCC(O)CC4)cc3)nc2n1C1CCCC1` [Example 198, 8-Cyclopentyl-2-[4-(4-hydroxy-piperidin-1-yl)-phenylamino]-8H-pyrido[2,3-d]pyrimidin-7-one] gave an IC50 of 1100 nM.
